Read-outs that look alike come from different tables or passages of the source. Residues, ends and D or L forms follow the SMILES beside them.
Tests used:
GRB7 SH2 domain = GRB7 SH2 domain (Homo sapiens, UniProt Q14451); experiment: FP saturation binding assay
[1] = target: PIK3R2-NC tandem SH2 domains (Homo sapiens, UniProt O00459); experiment: FP saturation binding assay
PLCG1-C SH2 domain = target: T1, PLCG1-C SH2 domain (Homo sapiens, UniProt P19174); experiment: biochemical; type: binding; settings: protein PLCG1-C; high-confidence ErbB interactions; mean of replicate hits
T1 construct: The 6X His-tagged SH2 domain proteins used in the assay, PLCG1-C, SHC4, VAV2; thioredoxin; made in house; host or cells: E. coli BL21(DE3)pLysS
T1 sequence (P19174 668-756 limits assumed): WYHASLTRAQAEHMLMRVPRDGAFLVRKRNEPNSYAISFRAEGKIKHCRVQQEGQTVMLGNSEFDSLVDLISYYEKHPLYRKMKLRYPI

[2] = test system: 93 human SH2 domains and 2 phosphotyrosine binding (PTB) domains; experiment: FP saturation binding assay, whole domain panel (protein named per line or not at all)
Protocol: (See Figure 1A) Rhodamine-labeled peptides were dissolved in assay buffer (20 mM HEPES, 100 mM KCl, 0.1% Tween-20, 5 mM DTT, pH 7.8), diluted to a concentration of 20 nM, and plated into black 384-well plates (Corning, Corning, NY) at 5 µL/well using a Perkin Elmer EP3 pipetting workstation (V&P Scientific, Inc., San Diego, CA). SH2, PTB, and thioredoxin control proteins were plated into the first column of 2 mL 96-well plates (Corning) at a concentration of 20 µM and serially diluted 1∶2 into freezing buffer (300 mM NaCl, 50 mM Na2PO4, pH 8, 20% glycerol v/v) eleven times using a Tecan Freedom EVO 100 workstation (Tecan, Männedorf, Switzerland). For the interaction assay, 5 µL of each of the twelve protein concentrations was added to the peptide-containing 384-well plates via the EP3 resulting in a protein dilution range of 0.002–10 µM and a final volume of 10 µL; peptide concentration was fixed at 10 nM. Peptide/protein samples were incubated for 20 minutes at room temperature in the dark and fluorescence polarization (FP) was measured in an Analyst GT multimode reader (Molecular Devices, Sunnyvale, CA) with excitation and emission wavelengths of 530 nm and 555 nm, respectively. Experimental values were output as millipolarization (mP) units and imported into MATLAB (The MathWorks, Inc., Natick, MA) in which equation (1) was used to determine dissociation constants (KDs) for each protein/peptide pairing by least squares nonlinear regression. [drawing 1] (1)
To scale up the number of interaction measurements while minimizing variation introduced by human intervention, we utilized an automated robotic platform (Figure 1A; see experimental procedures and Supplementary Methods) to transfer, incubate, and measure the fluorescence polarization (FP) induced from interactions of a titration series of SH2 domains with synthetic rhodamine-labeled ErbB phosphopeptides. Experimental values were output as millipolarization (mP) units and equation (1) was used to fit apparent midpoint dissociation constants (KDs) for each protein/peptide pair using non-linear regression (see experimental procedures).
For this interaction analysis, we synthesized and queried the interaction of phosphopeptides corresponding to 89 of 92 ErbB family intracellular tyrosines with 93 SH2 domains. Because nine peptide sequences share 100% identity between the receptors in the 4 to 7 amino acids C-terminal to the phosphorylated tyrosine, our peptide set consisted of 81 phosphopeptides corresponding to the 89 unique tyrosine containing sequences (Table S2). This peptide set represents a 50% increase over the three PM studies performed to date. We were therefore able to obtain a more systematic and unbiased view of the relative SH2 domain recruitment potential of each receptor. Although most ErbB receptor auto-phosphorylation sites have been detected frequently by mass spectrometry because of their high relative modification stoichiometry, non-auto-phosphorylation sites have been reported less frequently in the literature (Table S3). We reasoned that many physiologically relevant and uncharacterized ErbB tyrosines of low phosphorylation stoichiometry may exist and that our comprehensive interaction analysis might implicate their importance in mediating physiological interactions. We tested the majority of interactions (7099/8160 (87.0%); Figure S3) three or more times and reported standard error for all interactions that were detected in at least three FP runs (Table S4). […] Analysis of this polarization data may be useful for inferring how SH2 proteins bind to different peptide sequences. Larger proteins and proteins binding closer to the N-terminal rhodamine tag of a given peptide would be expected to induce higher maximal polarization (the calculated maximal polarization value at infinite protein concentration) than proteins binding farther from the tag. In addition to phosphopeptides, we queried a representative set of 27 non-phosphopeptides against the entire domain set. […]

SH2 and PTB domains = settings: ref Kaushansky et al. Mol Biosys 2008, cited from earlier work
Source text: Supplement pone.0044471.s022.xlsx, sheet "Most recent PM interactions" | column: Kd || Supplement pone.0044471.s022.xlsx, sheet "All original PM interactions" | column: Kd

Sequence of GRB7 SH2 domain (Q14451 431-527 limits assumed): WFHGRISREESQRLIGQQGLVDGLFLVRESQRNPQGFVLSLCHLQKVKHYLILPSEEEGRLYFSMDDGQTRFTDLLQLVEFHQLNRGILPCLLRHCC
Sequence of PIK3R2-NC tandem SH2 domains (O00459 330-716 limits assumed): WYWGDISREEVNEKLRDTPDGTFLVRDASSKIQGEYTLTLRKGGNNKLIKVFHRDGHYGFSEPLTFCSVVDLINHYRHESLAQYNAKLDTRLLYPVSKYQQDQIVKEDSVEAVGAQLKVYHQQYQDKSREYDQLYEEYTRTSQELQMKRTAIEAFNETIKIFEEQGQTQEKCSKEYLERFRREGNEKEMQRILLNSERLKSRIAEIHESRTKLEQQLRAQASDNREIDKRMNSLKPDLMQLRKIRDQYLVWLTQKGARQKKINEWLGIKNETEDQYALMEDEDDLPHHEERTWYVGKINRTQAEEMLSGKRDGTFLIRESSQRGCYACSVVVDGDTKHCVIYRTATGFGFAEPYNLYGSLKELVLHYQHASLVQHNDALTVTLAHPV

Compound `CSCC[C@H](NC(=O)[C@H](Cc1ccc(O)cc1)NC(=O)[C@H](CCC(=O)O)NC(=O)[C@H](Cc1ccc(OP(=O)(O)O)cc1)NC(=O)[C@H](CCC(=O)O)NC(=O)[C@H](CCC(=O)O)NC(=O)[C@H](CC(=O)O)NC(=O)[C@@H](N)CCC(=O)O)C(=O)N[C@@H](CC(N)=O)C(=O)N[C@@H](CCCNC(=N)N)C(=O)N[C@@H](CCCNC(=N)N)C(=O)N[C@@H](CCCNC(=N)N)C(=O)N[C@@H](CC(=O)O)C(=O)O` [ErbB3 pY1197] (HELM PEPTIDE1{E.D.E.E.[O=C([C@H](Cc1ccc(OP(=O)(O)O)cc1)N[*:1])[*:2]].E.Y.M.N.R.R.R.D}$$$$V2.0) has a Kd (GRB7 SH2 domain; KD for GRB7, FP saturation assay) of no more than 100 nM.
Compound `CC(C)C[C@H](NC(=O)[C@H](Cc1ccc(OP(=O)(O)O)cc1)NC(=O)[C@H](CC(C)C)NC(=O)[C@@H]1CCCN1C(=O)[C@H](CCC(=O)O)NC(=O)[C@@H](N)CC(N)=O)C(=O)N[C@@H](CC(N)=O)C(=O)N[C@H](C(=O)N[C@@H](Cc1ccccc1)C(=O)N[C@@H](C)C(=O)N[C@@H](CC(N)=O)C(=O)N[C@H](C(=O)N[C@@H](CC(=O)O)C(=O)O)[C@@H](C)O)[C@@H](C)O` [ErbB4 1208 13-mer] (HELM PEPTIDE1{N.E.P.L.[O=C([C@H](Cc1ccc(OP(=O)(O)O)cc1)N[*:1])[*:2]].L.N.T.F.A.N.T.D}$$$$V2.0) has a Kd (GRB7 SH2 domain; Mean KD, protein GRB7, high-confidence ErbB interactions, mean of replicate hits) of 8960 nM, a Kd [1] of 11300 nM and a Kd (PLCG1-C SH2 domain) of 5110 nM.
For “IGSQpYLLNWCVQd [ErbB1 pY813, N-terminally rhodamine-labeled 13-mer phosphopeptide]”, the “interaction with the SH2/PTB domain panel” value ([2]; KD <= 20 µM counted as interaction) is listed as “reproducibly interacted at high affinity with many SH2 domains”, the “SH2 domains found to interact” value ([2]; high-confidence interactions (Table S11, Figure S14)) is listed as “interacted with tensin family SH2 domains” and the Kd (SH2 and PTB domains; protein ABL2) is listed as 200 nM. The Kd (SH2 and PTB domains; protein GRB10) was 350 nM, the Kd (SH2 and PTB domains; protein ITK) was 310 nM and the Kd (SH2 and PTB domains; protein NCK2) was 200 nM. The Kd (SH2 and PTB domains; protein PIK3R1-C) was 1850 nM, the Kd (SH2 and PTB domains; protein PIK3R1-NC) was 1820 nM and the Kd (SH2 and PTB domains; protein PIK3R3-NC) was 1870 nM. For the same compound, the Kd (SH2 and PTB domains; protein RASA1-C) was 1950 nM, the Kd (SH2 and PTB domains; protein RASA1-NC) was 160 nM and the Kd (SH2 and PTB domains; protein SH2D1B) was 1600 nM. The Kd (SH2 and PTB domains; protein SH2D3C) was 50 nM, the Kd (SH2 and PTB domains; protein SHB) was 280 nM and the Kd (SH2 and PTB domains; protein SHE) was 1380 nM. The Kd (SH2 and PTB domains; protein SHF) was 1060 nM, the Kd (SH2 and PTB domains; protein SRC) was 80 nM and the Kd (SH2 and PTB domains; protein SYK-NC) was 240 nM. For the same compound, the Kd (SH2 and PTB domains; protein TENC1) was 1150 nM, the Kd (SH2 and PTB domains; protein TNS3) was 1890 nM and the Kd (SH2 and PTB domains; protein VAV1) was 370 nM. For the same compound, the Kd (SH2 and PTB domains; protein VAV2) was 470 nM, the Kd (SH2 and PTB domains; protein VAV3) was 960 nM and the Kd (SH2 and PTB domains; protein YES1) was 22 nM.
